# Assay results taken from patent publication US20250034125A1, “COMPOUNDS AND USES THEREOF” (JANSSEN PHARMACEUTICA NV, priority 2019, published 2025).
# Where two headings read alike, the source gives them in different places.
# Experiments:
# SCD1 = target: T1, SCD1 (Homo sapiens, UniProt O00767); assay: Growth inhibition of yeast (ole1Δ) expressing human SCD1 as the sole desaturase; format: cell-based
# T1 construct: host or cells: Saccharomyces cerevisiae ole1Δ strain (W303 pdr1Δ pdr3Δ background), plasmid pRS316, TDH3 promoter
# T1 sequence (O00767 1-359): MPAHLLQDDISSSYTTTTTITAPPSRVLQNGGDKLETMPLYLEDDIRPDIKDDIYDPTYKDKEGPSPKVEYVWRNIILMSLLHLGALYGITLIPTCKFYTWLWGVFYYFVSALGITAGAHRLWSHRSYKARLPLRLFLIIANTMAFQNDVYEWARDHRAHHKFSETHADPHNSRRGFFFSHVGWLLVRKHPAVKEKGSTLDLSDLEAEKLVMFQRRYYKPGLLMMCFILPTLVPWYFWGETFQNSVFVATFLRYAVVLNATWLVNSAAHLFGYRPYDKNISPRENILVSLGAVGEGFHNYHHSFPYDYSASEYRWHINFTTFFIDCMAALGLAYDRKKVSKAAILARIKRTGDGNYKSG
# SCD5 = target: T2, SCD5 (Homo sapiens, UniProt Q86SK9); assay: Growth inhibition of yeast (ole1Δ) expressing human SCD5 as the sole desaturase; format: cell-based
# T2 construct: host or cells: Saccharomyces cerevisiae ole1Δ strain (W303 pdr1Δ pdr3Δ background), plasmid pRS316, TDH3 promoter
# T2 sequence (Q86SK9 1-330): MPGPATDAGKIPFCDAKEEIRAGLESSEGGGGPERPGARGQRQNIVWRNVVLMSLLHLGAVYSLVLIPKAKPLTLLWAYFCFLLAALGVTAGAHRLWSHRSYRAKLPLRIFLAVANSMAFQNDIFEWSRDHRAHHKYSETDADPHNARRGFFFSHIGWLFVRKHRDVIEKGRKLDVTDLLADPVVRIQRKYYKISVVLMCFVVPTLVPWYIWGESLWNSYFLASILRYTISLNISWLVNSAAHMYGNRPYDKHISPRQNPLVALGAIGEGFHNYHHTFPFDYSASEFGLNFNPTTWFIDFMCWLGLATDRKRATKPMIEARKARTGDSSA
# [1] = yeast strain with SCD1 plasmid, OD600 growth read at 40 h, read-out: SCD1 IC50
# [2] = yeast strain with SCD5 plasmid, OD600 growth read at 40 h, read-out: SCD5 IC50
Structure (SMILES),IC50 (SCD1; [1]) [nM],IC50 (SCD5; [2]) [nM],IC50 (SCD1) [nM],IC50 (SCD5) [nM]
"Cn1nc(-c2nc(N3CCC(Cc4ccc(F)c(F)c4)CC3)no2)ccc1=O [Compound 116, 6-(3-(4-(3,4-difluorobenzyl)piperidin-1-yl)-1,2,4-oxadiazol-5-yl)-2-methylpyridazin-3(2H)-one]",860,10,,
"Cn1cc(NC(=O)N2CCC(Cc3cc(F)cc(F)c3)C2)ccc1=O (stereo not shown) [Compound 3, 3-(3,5-difluorobenzyl)-N-(1-methyl-6-oxo-1,6-dihydropyridin-3-yl)pyrrolidine-1-carboxamide]",11300,20700,,
"Cn1nc(NC(=O)N2CCC(Nc3ccccc3C(F)(F)F)CC2)ccc1=O [Compound 92, N-(1-methyl-6-oxo-1,6-dihydropyridazin-3-yl)-4-(2-(trifluoromethyl)phenylamino) piperidine-1-carboxamide]",2400,390,,
"Cn1nc(NC(=O)N2CCC(F)(Cc3ccc(F)c(F)c3)CC2)ccc1=O [Compound 60, 4-(3,4-difluorobenzyl)-4-fluoro —N-(1-methyl-6-oxo-1,6-dihydropyridazin-3-yl)piperidine-1-carboxamide]",3900,1100,,
Cn1nc(NC(=O)N2CCC[C@@H](c3ccc(Cl)cc3)CC2)ccc1=O [Compound 31],39000,> 45000,,
O=C(Cc1ccc(=O)[nH]n1)N1CCC(Cc2cccc(Cl)c2)CC1 [Compound 34],> 45000,8200,,
"Cn1nc(NC(=O)N2CC[C@@H](Oc3ccc(F)c(F)c3)C2)ccc1=O [Compound 27, (3R)-3-(3,4-difluorophenoxy)-N-(1-methyl-6-oxo-1,6-dihydropyridazin-3-yl)pyrrolidine-1-carboxamide]",17000,> 45000,,
"Cn1nc(NC(=O)N2CC[C@@H](Oc3cc(F)cc(F)c3)C2)ccc1=O [Compound 28, (3R)-3-(3,5-difluorophenoxy)-N-(1-methyl-6-oxo-1,6-dihydropyridazin-3-yl)pyrrolidine-1-carboxamide]",8100,> 45000,,
"Cn1cc(-c2nc(N3CCC(Oc4cccc(F)c4Cl)CC3)no2)ccc1=O [Compound 16, 5-(3-(4-(2-chloro-3-fluorophenoxy)piperidin-1-yl)-1,2,4-oxadiazol-5-yl)-1-methylpyridin-2(1H)-one]",350,590,,
"Cn1nc(NC(=O)N2CCC(Oc3ccccc3)CC2)ccc1=O [Compound 67, N-(1-methyl-6-oxo-1,6-dihydropyridazin-3-yl)-4-phenoxypiperidine-1-carboxamide]",3980,2100,,
"Cn1nc(NC(=O)N2CCC(Oc3cccc(C(F)(F)F)c3)CC2)ccc1=O [Compound 74, N-(1-methyl-6-oxo-1,6-dihydropyridazin-3-yl)-4-(3-(trifluoromethyl)phenoxy) piperidine-1-carboxamide]",20,40,,
Cc1cc(NC(=O)N2CCC(Oc3cc(F)cc(F)c3)CC2)nn(C)c1=O [Compound 126],40,40,,
"Cc1ccccc1OC1CCN(C(=O)Nc2ccc(=O)n(C)n2)CC1 [Compound 72, N-(1-methyl-6-oxo-1,6-dihydropyridazin-3-yl)-4-(o-tolyloxy) piperidine-1-carboxamide]",430,280,,
Cn1nc(NC(=O)N2CCC(Oc3ccc(Cl)cc3)CC2)ccc1=O [Compound 71],13300,4960,,
"Cn1nc(NC(=O)N2CCC(Oc3cccc(Cl)c3)CC2)ccc1=O [Compound 68, 4-(3-chlorophenoxy)-N-(1-methyl-6-oxo-1,6-dihydropyridazin-3-yl)piperidine-1-carboxamide]",260,60,,
"Cn1nc(NC(=O)N2CCC(Cc3cccc(F)c3)CC2)ccc1=O [Compound 41, 4-(3-fluorobenzyl)-N-(1-methyl-6-oxo-1,6-dihydropyridazin-3-yl)piperidine-1-carboxamide]",2710,140,,
"Cn1nc(NC(=O)N2CCC(COc3ccccc3C(F)(F)F)CC2)ccc1=O [Compound 100, N-(1-methyl-6-oxo-1,6-dihydropyridazin-3-yl)-4-((2-(trifluoromethyl)phenoxy)methyl)piperidine-1-carboxamide]",4490,220,,

Structure (SMILES),IC50 (SCD1; [1]) [nM],IC50 (SCD5; [2]) [nM],IC50 (SCD1) [nM],IC50 (SCD5) [nM]
"Cn1nc(-c2nc(N3CCC(Oc4cc(F)cc(F)c4)CC3)no2)ccc1=O [Compound 111, 6-(3-(4-(3,5-difluorophenoxy)piperidin-1-yl)-1,2,4-oxadiazol-5-yl)-2-methylpyridazin-3(2H)-one]",> 45000,610,,
"Cn1nc(NC(=O)N2CCN(Cc3cccc(Cl)c3)CC2)ccc1=O [Compound 130, 4-(3-chlorobenzyl)-N-(1-methyl-6-oxo-1,6-dihydropyridazin-3-yl)piperazine-1-carboxamide]",> 45000,15800,,
"Cn1nc(NC(=O)N2CCC(COc3ccccc3F)CC2)ccc1=O [Compound 99, 4-((2-fluorophenoxy)methyl)-N-(1-methyl-6-oxo-1,6-dihydropyridazin-3-yl)piperidine-1-carboxamide]",32500,6870,,
"Cn1cc(-c2noc(N3CCC(Cc4ccc(F)c(F)c4)CC3)n2)ccc1=O [Compound 20, 5-(5-(4-(3,4-difluorobenzyl)piperidin-1-yl)-1,2,4-oxadiazol-3-yl)-1-methylpyridin-2(1H)-one]",2700,1400,,
"Cn1nc(NC(=O)N2CCC(F)(Cc3cccc(F)c3)CC2)ccc1=O [Compound 45, 4-fluoro-4-(3-fluorobenzyl)-N-(1-methyl-6-oxo-1,6-dihydropyridazin-3-yl)piperidine-1-carboxamide]",1680,220,,
"Cn1nc(NC(=O)N2CCC(Oc3cc(F)c(F)c(C#N)c3)CC2)ccc1=O [Compound 90, 4-(3-cyano-4,5-difluorophenoxy)-N-(1-methyl-6-oxo-1,6-dihydropyridazin-3-yl)piperidine-1-carboxamide]",10300,7180,,
"Cn1nc(-c2nc(N3CCC(Oc4cccc(F)c4Cl)CC3)no2)ccc1=O [Compound 112, 6-(3-(4-(2-chloro-3-fluorophenoxy)piperidin-1-yl)-1,2,4-oxadiazol-5-yl)-2-methylpyridazin-3(2H)-one]",500,600,,
Cc1cc(NC(=O)N2CCC(Cc3cc(F)cc(F)c3)CC2)nn(C)c1=O [Compound 128],50,20,,
"Cn1cc(NC(=O)N2CCC(Nc3cc(F)cc(F)c3)CC2)ccc1=O [Compound 11, 4-(3,5-difluorophenylamino)-N-(1-methyl-6-oxo-1,6-dihydropyridin-3-yl)piperidine-1-carboxamide]",,,> 45000,> 45000
"Cn1cc(-c2nnc(N3CCC(Cc4cccc(F)c4)CC3)o2)ccc1=O [Compound 18, 5-(5-(4-(3-fluorobenzyl)piperidin-1-yl)-1,3,4-oxadiazol-2-yl)-1-methylpyridin-2(1H)-one]",> 45000,1930,,
"Cn1nc(NC(=O)N2CCC(Cc3cc(F)c(F)c(C#N)c3)CC2)ccc1=O [Compound 65, 4-(3-cyano-4,5-difluorobenzyl)-N-(1-methyl-6-oxo-1,6-dihydropyridazin-3-yl)piperidine-1-carboxamide]",8150,1490,,
"Cn1nc(-c2nnc(N3CCC(Cc4cccc(F)c4)CC3)o2)ccc1=O [Compound 119, 6-(5-(4-(3-fluorobenzyl)piperidin-1-yl)-1,3,4-oxadiazol-2-yl)-2-methylpyridazin-3(2H)-one]",> 45000,160,,
"Cn1nc(NC(=O)N2CCC(Oc3cccc(Cl)c3Cl)CC2)ccc1=O [Compound 81, 4-(2,3-dichlorophenoxy)-N-(1-methyl-6-oxo-1,6-dihydropyridazin-3-yl)piperidine-1-carboxamide]",60,150,,
Cc1cc(NC(=O)N2CCC(Oc3ccc(F)c(F)c3)CC2)nn(C)c1=O [Compound 127],200,200,,
"Cn1nc(-c2cnc(N3CCC(Cc4cc(F)cc(F)c4)CC3)o2)ccc1=O [Compound 124, 6-(2-(4-(3,5-difluorobenzyl)piperidin-1-yl)oxazol-5-yl)-2-methylpyridazin-3(2H)-one]",26000,140,,
"Cn1nc(-c2nnc(N3CCC(Cc4cc(F)cc(F)c4)CC3)o2)ccc1=O [Compound 118, 6-(5-(4-(3,5-difluorobenzyl)piperidin-1-yl)-1,3,4-oxadiazol-2-yl)-2-methylpyridazin-3(2H)-one]",26300,70,,
"Cn1nc(-c2nc(N3CCC(Cc4cccc(F)c4)CC3)no2)ccc1=O [Compound 114, 6-(3-(4-(3-fluorobenzyl)piperidin-1-yl)-1,2,4-oxadiazol-5-yl)-2-methylpyridazin-3(2H)-one]",,10,,
